Experiment [1] deals with primary human gingival fibroblasts. Description: Cytotoxicity of 5-FU in primary human gingival fibroblasts with or without PTD-4-TSD254E fusion protein (Hoechst 33342). Type of experiment: cell-based. As to conditions: 10 mM 5-FU, 24 h, without PTD-4-TSD254E, FIG. 7. As to the method:
After completion of the 24-hour treatment of the cells in the control- or test assaysas described above, the medium is removed from the 96-well-plates and substituted by 200 μL/well DMEM medium with 10% fetal calve serum and 10 μg/mL of the DNA-binding fluorescent dye H33342 (Engelmann et al., 2001). The plates are kept at 37° C. for 30 minutes and are then washed twice with each 100 μL/well phosphaste-buffered sodium chloride solution (PBS, “phosphate buffered saline”). Subsequently, 100 μL well PBS is added and the fluorescence is quantified at an […]. The intensity of the fluorescence signal is a measure for the number of viable cells. The fluorescence background signal (dye incubation without cells) is subtracted from the raw data of the fluorescence readings and the calculation of the %-share of viable cells is made related to the fluorescence reading of cells, which were not treated with 5-FU. The fluorescence intensity of these samples is set as 100%. The dosage of 5-FU that kills 50% of the cells (ED50), is determined using the same method. […] The ED50-values were calculated using the nonlinear regression. This method to determine the ED50 has been already described (Engelmann et al., 2001). […]

The next experiment relates to 3T3 fibroblasts. Nature of the experiment: Cytotoxicity of 5-FU in 3T3 fibroblasts with or without PTD-4-TSD254E fusion protein (Hoechst 33342). As to conditions: 24 h. The class given is cell-based. Here is the method: 3T3 fibroblasts cells (available by the American Type […] Collection (ATCC, Rockville, Md., USA) were seeded with a cell density of 1×10^4 cells per well into 96-well-cell culture plates. DMEM medium with 10% fetal calve serum is used as cell culture medium, and cells are cultured in a CO2-incubator at 37° C. and 5% CO2. The cell culture medium is aspirated after 24 hours and substituted by 200 μL/well of the test assay and cells are incubated for another 24 hours. Subsequently the portion of viable cells was determined as described below. The test assays are composed as follows:
Controls without 5-FU and without PTD-4-TSD2S4E-fusion protein: 200 μL/well of DMEM with 10%.fetal calve serum […]
After completion of the 24-hour treatment of the cells in the control- or test assaysas described above, the medium is removed from the 96-well-plates and substituted by 200 μL/well DMEM medium with 10% fetal calve serum and 10 μg/mL of the DNA-binding fluorescent dye H33342 (Engelmann et al., 2001). […] Subsequently, 100 μL well PBS is added and the fluorescence is quantified at an […]. The intensity of the fluorescence signal is a measure for the number of viable cells. […] The fluorescence intensity of these samples is set as 100%. […] The ED50-values were calculated using the nonlinear regression. […]

For experiment [2] the following is noted: Ho et al., 2001; cited from earlier work.

For `O=c1[nH]cc(F)c(=O)[nH]1` [Mutant 5-FU, 5-fluorouracil], the survival of cells came out at 70% in experiment [1] and 50% in the experiment on 3T3 fibroblasts (2.5 μM 5-FU, absence of PTD-4-TSD254E, FIG. 6). In addition, in the experiment with 3T3 fibroblasts (3T3-fibroblast cell line, read-out: ED50 (dosage of 5-FU that kills 50% of the cells)), the EC50 amounted to 2500 nM.
For the compound “PTD-4: optimized TAT sequence YARAAARQARA (SEQ ID NO: 6), protein transduction domain 4 (synthetic TAT sequence optimized by random mutagenisis)”, in experiment [2], the “transduction activity in comparison to the original TAT sequence” value is listed as 33 fold.
